Source: patent US5545547A, “Enzymes as agricultural chemical adjuvants” (priority 1992, dated 1996)

Columns and labels:
Format in all cases: in vivo
[1] = test system: various plants; assay: Greenhouse multispecies herbicide screen, statements on all tested plants
Text: (§1) Several plant species including weeds and crops are used in these experiments.
A number of herbicides from various chemical classes were compared in a multispecies screen for percent chlorosis, necrosis and vigor reduction both with and without application of the enzyme from Pseudomonas mendocina ATCC 53552 described earlier. The herbicides were applied to various plants at the manufacturers recommended doses and at 10% and 40% of the recommended dose. Two different enzyme concentrations were used: 0.5 mg/ml (HE) and 0.05 mg/ml (LE) and applied at the rate of 40 gallons/acre. All spraying solutions were at pH 10 and contained 100 mm sodium phosphate each. […] All the experiments were carried out in a greenhouse.

[2] = test system: Soybeans; assay: Greenhouse multispecies herbicide screen with/without P. mendocina enzyme; conditions: two weeks after treatment
Text: as §1
(§2) A number of herbicides from various chemical classes were compared in a multispecies screen for percent chlorosis, necrosis and vigor reduction both with and without application of the enzyme from Pseudomonas mendocina ATCC 53552 described earlier. The herbicides were applied to various plants at the manufacturers recommended doses and at 10% and 40% of the recommended dose. Two different enzyme concentrations were used: 0.5 mg/ml (HE) and 0.05 mg/ml (LE) and applied at the rate of 40 gallons/acre. All spraying solutions were at pH 10 and contained 100 mm sodium phosphate each. Ratings were done at 6 and 12 days after the treatment. All the experiments were carried out in a greenhouse.
(§3) Chlorosis--figures represent percent of plants showing chlorosis.
(§4) Necrosis--figures represent percent of plants showing necrosis.
(§5) Vigor--figures represent percent of plants showing decreased vigor.
(§6) Phytotoxicity--figures represent the average percent of chlorosis, necrosis, and vigor for a given sample.
(§7) The method of Example 1 was used except that the enzyme was applied 2 hours prior to administering the agricultural chemical with the following results. Ratings were done two weeks after treatment

[3] = test system: Turnip; assay: as above; conditions: for CHL (chlorosis) / NEC (necrosis) / PHY (phytotoxicity) / VIG (vigor) / % PHY (phytotoxicity): two weeks after treatment
Text: as §1, §2, §3, §4, §5, §6, §7

[4] = Example 8: BASAGRAN 10% dose, High Enzyme applied 2 hours prior
[5] = Example 8: BASAGRAN 10% dose, Low Enzyme applied 2 hours prior
[6] = Example 8: BASAGRAN 10% dose, No Enzyme

Compound: CC(C)N1C(=O)c2ccccc2NS1(=O)=O [BASAGRAN, 3-(1-methylethyl)-1H-,2,1,3-benzothiadiazin-4(3H)-one 2,2-dioxide]
- Plants killed ([1]; BASAGRAN applied at 40% of the recommended dosage, two weeks after treatment): completely killed
- CHL (chlorosis) ([2]; BASAGRAN 10% dose, High Enzyme): 18%
- NEC (necrosis) ([2]; BASAGRAN 10% dose, High Enzyme): 38%
- PHY (phytotoxicity) ([2]; BASAGRAN 10% dose, High Enzyme): 43%
- VIG (vigor) ([2]; BASAGRAN 10% dose, High Enzyme): 73%
- CHL (chlorosis) ([2]; BASAGRAN 10% dose, Low Enzyme): 18%
- NEC (necrosis) ([2]; BASAGRAN 10% dose, Low Enzyme): 43%
- PHY (phytotoxicity) ([2]; BASAGRAN 10% dose, Low Enzyme): 37%
- VIG (vigor) ([2]; BASAGRAN 10% dose, Low Enzyme): 50%
- CHL (chlorosis) ([2]; BASAGRAN 10% dose, No Enzyme): 5%
- NEC (necrosis) ([2]; BASAGRAN 10% dose, No Enzyme): 5%
- PHY (phytotoxicity) ([2]; BASAGRAN 10% dose, No Enzyme): 8%
- VIG (vigor) ([2]; BASAGRAN 10% dose, No Enzyme): 13%
- % PHY (phytotoxicity) [2, 4]: 2%
- CHL (chlorosis) [2, 4]: 0%
- NEC (necrosis) [2, 4]: 5%
- VIG (vigor) [2, 4]: 0%
- % PHY (phytotoxicity) [2, 5]: 48%
- CHL (chlorosis) [2, 5]: 48%
- NEC (necrosis) [2, 5]: 48%
- VIG (vigor) [2, 5]: 48%
- % PHY (phytotoxicity) [2, 6]: 25%
- CHL (chlorosis) [2, 6]: 25%
- NEC (necrosis) [2, 6]: 25%
- VIG (vigor) [2, 6]: 25%
- CHL (chlorosis) ([3]; BASAGRAN 10% dose, High Enzyme): 38%
- NEC (necrosis) ([3]; BASAGRAN 10% dose, High Enzyme): 50%
- PHY (phytotoxicity) ([3]; BASAGRAN 10% dose, High Enzyme): 50%
- VIG (vigor) ([3]; BASAGRAN 10% dose, High Enzyme): 63%
- CHL (chlorosis) ([3]; BASAGRAN 10% dose, Low Enzyme): 38%
- NEC (necrosis) ([3]; BASAGRAN 10% dose, Low Enzyme): 63%
- PHY (phytotoxicity) ([3]; BASAGRAN 10% dose, Low Enzyme): 59%
- VIG (vigor) ([3]; BASAGRAN 10% dose, Low Enzyme): 75%
- CHL (chlorosis) ([3]; BASAGRAN 10% dose, No Enzyme): 25%
- NEC (necrosis) ([3]; BASAGRAN 10% dose, No Enzyme): 25%
- PHY (phytotoxicity) ([3]; BASAGRAN 10% dose, No Enzyme): 29%
- VIG (vigor) ([3]; BASAGRAN 10% dose, No Enzyme): 38%
- % PHY (phytotoxicity) [3, 4]: 41%
- CHL (chlorosis) [3, 4]: 30%
- NEC (necrosis) [3, 4]: 50%
- VIG (vigor) [3, 4]: 43%
- % PHY (phytotoxicity) [3, 5]: 78%
- CHL (chlorosis) [3, 5]: 63%
- NEC (necrosis) [3, 5]: 85%
- VIG (vigor) [3, 5]: 85%
- % PHY (phytotoxicity) [3, 6]: 48%
- CHL (chlorosis) [3, 6]: 25%
- NEC (necrosis) [3, 6]: 63%
- VIG (vigor) [3, 6]: 55%

Compound: CN(C)C(=O)Nc1ccc(Cl)c(Cl)c1 [KARMEX, 3-(3,4-dichlorophenyl)-1,1-dimethylurea]
- Phytotoxicity ([1]; KARMEX under the test conditions): low
- CHL (chlorosis) ([2]; KARMEX 10% dose, High Enzyme): 0%
- NEC (necrosis) ([2]; KARMEX 10% dose, High Enzyme): 0%
- PHY (phytotoxicity) ([2]; KARMEX 10% dose, High Enzyme): 0%
- VIG (vigor) ([2]; KARMEX 10% dose, High Enzyme): 0%
- CHL (chlorosis) ([2]; KARMEX 10% dose, Low Enzyme): 0%
- NEC (necrosis) ([2]; KARMEX 10% dose, Low Enzyme): 0%
- PHY (phytotoxicity) ([2]; KARMEX 10% dose, Low Enzyme): 0%
- VIG (vigor) ([2]; KARMEX 10% dose, Low Enzyme): 0%
- CHL (chlorosis) ([2]; KARMEX 10% dose, No Enzyme): 0%
- NEC (necrosis) ([2]; KARMEX 10% dose, No Enzyme): 0%
- PHY (phytotoxicity) ([2]; KARMEX 10% dose, No Enzyme): 0%
- VIG (vigor) ([2]; KARMEX 10% dose, No Enzyme): 0%
- CHL (chlorosis) ([2]; KARMEX 40% dose, High Enzyme): 0%
- NEC (necrosis) ([2]; KARMEX 40% dose, High Enzyme): 13%
- PHY (phytotoxicity) ([2]; KARMEX 40% dose, High Enzyme): 8%
- VIG (vigor) ([2]; KARMEX 40% dose, High Enzyme): 10%
- CHL (chlorosis) ([2]; KARMEX 40% dose, Low Enzyme): 0%
- NEC (necrosis) ([2]; KARMEX 40% dose, Low Enzyme): 15%
- PHY (phytotoxicity) ([2]; KARMEX 40% dose, Low Enzyme): 6%
- VIG (vigor) ([2]; KARMEX 40% dose, Low Enzyme): 5%
- CHL (chlorosis) ([2]; KARMEX 40% dose, No Enzyme): 0%
- NEC (necrosis) ([2]; KARMEX 40% dose, No Enzyme): 10%
- PHY (phytotoxicity) ([2]; KARMEX 40% dose, No Enzyme): 3%
- VIG (vigor) ([2]; KARMEX 40% dose, No Enzyme): 0%
- CHL (chlorosis) ([3]; KARMEX 10% dose, High Enzyme): 18%
- NEC (necrosis) ([3]; KARMEX 10% dose, High Enzyme): 15%
- PHY (phytotoxicity) ([3]; KARMEX 10% dose, High Enzyme): 11%
- VIG (vigor) ([3]; KARMEX 10% dose, High Enzyme): 0%
- CHL (chlorosis) ([3]; KARMEX 10% dose, Low Enzyme): 18%
- NEC (necrosis) ([3]; KARMEX 10% dose, Low Enzyme): 15%
- PHY (phytotoxicity) ([3]; KARMEX 10% dose, Low Enzyme): 11%
- VIG (vigor) ([3]; KARMEX 10% dose, Low Enzyme): 5%
- CHL (chlorosis) ([3]; KARMEX 10% dose, No Enzyme): 28%
- NEC (necrosis) ([3]; KARMEX 10% dose, No Enzyme): 10%
- PHY (phytotoxicity) ([3]; KARMEX 10% dose, No Enzyme): 13%
- VIG (vigor) ([3]; KARMEX 10% dose, No Enzyme): 0%
- CHL (chlorosis) ([3]; KARMEX 40% dose, High Enzyme): 35%
- NEC (necrosis) ([3]; KARMEX 40% dose, High Enzyme): 25%
- PHY (phytotoxicity) ([3]; KARMEX 40% dose, High Enzyme): 36%
- VIG (vigor) ([3]; KARMEX 40% dose, High Enzyme): 50%
- CHL (chlorosis) ([3]; KARMEX 40% dose, Low Enzyme): 30%
- NEC (necrosis) ([3]; KARMEX 40% dose, Low Enzyme): 50%
- PHY (phytotoxicity) ([3]; KARMEX 40% dose, Low Enzyme): 41%
- VIG (vigor) ([3]; KARMEX 40% dose, Low Enzyme): 43%
- CHL (chlorosis) ([3]; KARMEX 40% dose, No Enzyme): 25%
- NEC (necrosis) ([3]; KARMEX 40% dose, No Enzyme): 38%
- PHY (phytotoxicity) ([3]; KARMEX 40% dose, No Enzyme): 33%
- VIG (vigor) ([3]; KARMEX 40% dose, No Enzyme): 37%
- Phytotoxicity with enzyme ([3]; KARMEX at 40% of the recommended dosage, with enzyme, sprayed on turnips): increased phytotoxicity
